Laboratory results from patent publication US20250051277A1, “DELIVERY OF THERAPEUTIC ALKALOID COMPOUNDS” (Sensorium Therapeutics, Inc., priority 2021, published 2025).
Like-named read-outs stand apart in the source and are kept apart here.

Tests used:
[1] = 10 μM
[2] = 10 μM; remark: listed apart in the source
[3] = format: physicochemical; conditions: SGF with pepsin, pH 1.5, 37° C., 0.5 mM
[4] = format: physicochemical; conditions: DI water, 25° C., 0.5 mM

| Compound | Prodrug (%) remaining, Human Plasma ([1]; 0 h) | Prodrug (%) remaining, Human Plasma ([1]; 10 min) | Prodrug (%) remaining, Human Plasma ([1]; 0.5 h) | Prodrug (%) remaining, Human Plasma ([1]; 1 h) | Prodrug (%) remaining, Human Plasma ([1]; 2 h) | Prodrug (%) remaining, Human Plasma ([1]; 4 h) | Prodrug (%) remaining, Rat Plasma ([2]; 0 h) | Prodrug (%) remaining, Rat Plasma ([2]; 10 min) | Prodrug (%) remaining, Rat Plasma ([2]; 0.5 h) | Prodrug (%) remaining, Rat Plasma ([2]; 1 h) | Prodrug (%) remaining, Rat Plasma ([2]; 2 h) | Prodrug (%) remaining, Rat Plasma ([2]; 4 h) | further results |
| --- | --- | --- | --- | --- | --- | --- | --- | --- | --- | --- | --- | --- | --- |
| COc1ccc([C@@]23CCC(OC(=O)c4c(C)cc(C)cc4C)=C[C@@H]2N(C)CC3)cc1OC [Compound 356, (3aS,7aS)-3a-(3,4-dimethoxyphenyl)-1-methyl-2,3,3a,4,5,7a-hexahydro-1H-indol-6-yl2,4,6-trimethylbenzoate] | 100.0% | >99% | >99% | >99% | >99% | >99% | 100.0% | >99% | >99% | >99% | >99% | 95.8% | – |
| COc1ccc([C@@]23CCC(=NNCc4cccnc4)C[C@@H]2N(C)CC3)cc1OC [Compound 370, N-[[(3aS,7aS)-3a-(3,4-dimethoxyphenyl)-1-methyl-2,3,4,5,7,7a-hexahydroindol-6-ylidene]amino]-1-(3-pyridyl)methanamine] | – | – | – | – | – | – | – | – | – | – | – | – | Condition 1 Conversion (%) ([3]; time 1 min): 20%; Condition 1 Conversion (%) ([3]; time 5 min): 40%; Condition 1 Conversion (%) ([3]; time 30 min): 100%; Condition 1 Conversion (%) ([3]; time 1 h): 100%; Condition 1 Conversion (%) ([3]; time 4 h): 100%; Condition 1 Conversion (%) ([3]; time 24 h): 100%; Condition 2 Conversion (%) ([4]; time 1 min): 0%; Condition 2 Conversion (%) ([4]; time 5 min): 0%; Condition 2 Conversion (%) ([4]; time 30 min): 0%; Condition 2 Conversion (%) ([4]; time 1 h): 10%; Condition 2 Conversion (%) ([4]; time 4 h): 30%; Condition 2 Conversion (%) ([4]; time 24 h): 70% |
| CCCCCCCC(=O)OC1=C[C@@H]2N(C)CC[C@]2(c2ccc(OC)c(OC)c2)CC1 [Compound 395, (3aS,7aS)-3a-(3,4-dimethoxyphenyl)-1-methyl-2,3,3a,4,5,7a-hexahydro-1H-indol-6-yl octanoate] | 100.0% | 13.9% | 3.5% | 1.1% | 0.3% | 0.1% | 100.0% | 0.3% | 0.1% | 0.1% | 0.1% | 0.1% | – |
| COc1ccc([C@@]23CCC(OC(=O)CCN)=C[C@@H]2N(C)CC3)cc1OC [Compound 397, (3aS,7aS)-3a-(3,4-dimethoxyphenyl)-1-methyl-2,3,3a,4,5,7a-hexahydro-1H-indol-6-yl3-aminopropanoate] | 100.0% | 2.2% | 0.5% | 0.1% | 0.2% | 0.0% | 100.0% | 10.5% | 0.5% | 0.1% | 0.1% | 0.1% | – |
| CCCC(CC)CC(=O)OC1=C[C@@H]2N(C)CC[C@]2(c2ccc(OC)c(OC)c2)CC1 (stereo partly drawn) [Compound 398, (3aS,7aS)-3a-(3,4-dimethoxyphenyl)-1-methyl-2,3,3a,4,5,7a-hexahydro-1H-indol-6-yl3-ethylhexanoate] | 100.0% | 96.4% | 85.0% | 72.4% | 51.6% | 25.5% | 100.0% | 2.8% | 0.7% | 0.1% | 0.0% | 0.0% | – |
| COc1ccc([C@@]23CCC(OC(=O)CCC(C)C)=C[C@@H]2N(C)CC3)cc1OC [Compound 399, (3aS,7aS)-3a-(3,4-dimethoxyphenyl)-1-methyl-2,3,3a,4,5,7a-hexahydro-1H-indol-6-yl4-methylpentanoate] | 100.0% | 5.6% | 1.1% | 0.5% | 0.3% | 0.2% | 100.0% | 0.0% | 0.0% | 0.0% | 0.0% | 0.0% | – |
| CCCCCC(C)C(=O)OC1=C[C@@H]2N(C)CC[C@]2(c2ccc(OC)c(OC)c2)CC1 (stereo partly drawn) [Compound 400, (3aS,7aS)-3a-(3,4-dimethoxyphenyl)-1-methyl-2,3,3a,4,5,7a-hexahydro-1H-indol-6-yl2-methylheptanoate] | 100.0% | 34.7% | 11.6% | 5.2% | 2.3% | 1.9% | 100.0% | 12.6% | 0.6% | 0.1% | 0.1% | 0.0% | – |
| CCCCC(CC)C(=O)OC1=C[C@@H]2N(C)CC[C@]2(c2ccc(OC)c(OC)c2)CC1 (stereo partly drawn) [Compound 401, (3aS,7aS)-3a-(3,4-dimethoxyphenyl)-1-methyl-2,3,3a,4,5,7a-hexahydro-1H-indol-6-yl2-ethylhexanoate] | 100.0% | 95.9% | >99% | 96.6% | 94.4% | 93.4% | 100.0% | 84.5% | 55.8% | 33.8% | 16.3% | 3.3% | – |
| CCCC(C)C(=O)OC1=C[C@@H]2N(C)CC[C@]2(c2ccc(OC)c(OC)c2)CC1 (stereo partly drawn) [Compound 402, (3aS,7aS)-3a-(3,4-dimethoxyphenyl)-1-methyl-2,3,3a,4,5,7a-hexahydro-1H-indol-6-yl2-methylpentanoate] | 100.0% | 11.3% | 2.9% | 2.1% | 1.6% | 1.1% | 100.0% | 3.5% | 0.1% | 0.0% | 0.0% | 0.0% | – |
| COCCCCC(=O)OC1=C[C@@H]2N(C)CC[C@]2(c2ccc(OC)c(OC)c2)CC1 [Compound 404, (3aS,7aS)-3a-(3,4-dimethoxyphenyl)-1-methyl-2,3,3a,4,5,7a-hexahydro-1H-indol-6-yl5-methoxypentanoate] | 100.0% | 22.9% | 11.5% | 7.6% | 3.8% | 1.6% | 100.0% | 0.3% | 0.3% | 0.3% | 0.3% | 0.2% | – |
| COCCOCCC(=O)OC1=C[C@@H]2N(C)CC[C@]2(c2ccc(OC)c(OC)c2)CC1 [Compound 405, (3aS,7aS)-3a-(3,4-dimethoxyphenyl)-1-methyl-2,3,3a,4,5,7a-hexahydro-1H-indol-6-yl3-(2-methoxyethoxy)propanoate] | 100.0% | >99% | 95.0% | 87.0% | 65.7% | 46.7% | 100.0% | 0.1% | 0.0% | 0.1% | 0.0% | 0.0% | – |
| CCC(C)C(=O)OC1=C[C@@H]2N(C)CC[C@]2(c2ccc(OC)c(OC)c2)CC1 (stereo partly drawn) [Compound 425, (3aS,7aS)-3a-(3,4-dimethoxyphenyl)-1-methyl-2,3,3a,4,5,7a-hexahydro-1H-indol-6-yl2-methylbutanoate] | 100.0% | 6.5% | 4.8% | 4.0% | 3.0% | 1.9% | 100.0% | 4.4% | 0.1% | 0.0% | 0.0% | 0.0% | – |
